In assay [1] the test system is LNCaP cells. In words: Cell-cycle analysis (propidium iodide, FACScan). The conditions noted are these: 1 μM, 6 days. In kind it is cell-based, human. As to the method: LNCaP cells were treated with 1 or 5 μM of ATRA or each of the RAMBAs for 6 days. The cells were trypsinised and washed twice in PBS (Life Technologies, Grand Island, NY, USA). The cells were fixed by adding 70% ethanol and stored at −20°C until staining. The cells were washed twice in PBS. A volume of 1 ml of a propidium iodide (PI) solution (50 μg ml^−1 in PBS) and 500 μl of an RNase stock solution (100 μg ml^−1) were added to the cells and incubated for 1 h in the dark. Approximately 10^4 stained cells were then analysed by flow cytometry (Becton Dickenson FACScan, Franklin Lakes, NJ, USA). The percentages of cells in G0/G1, S, and G2/M phases of the cell cycle as well as percentage of apoptotic cells (sub G0/G1) were determined using MODFIT LT software (Verity Software House, San Jose, CA, USA). The percentages of cells in G0/G1, S, and G2/M phases of the cell cycle were obtained from diploid cells in the sample and the percentage of apoptotic cells (sub G0/G1) was obtained from total cells minus the debris.

The subject of assay [2] is LNCaP cells. Put plainly: TUNEL assay of apoptosis in LNCaP cells. The conditions noted are these: 1 or 5 μM, 6 days. The class given is cell-based, human. Here is the method: A total of 4000 LNCaP cells were plated on each well of an eight-well Lab-Tek II® chamber slide (Nalge Nunc International, Naperville, IL, USA). The LNCaP cells were then treated with either 1 or 5 μM of ATRA or RAMBA for 6 days. Cells were then fixed in 4% paraformaldehyde solution in dH2O. The cells were then processed and stained with FITC (fluorescein isothiocyanate) according to kit instructions (In situ cell death detection kit, AP, Roche Diagnostics Corp., Indianapolis, IN, USA). The FITC-stained cells are then mounted with VectorShield® mounting medium for fluorescence with DAPI (4′,6-diamidine-2′-phenylindole dihydrochloride) nuclear stain (Vector Laboratories, Inc., Burlingame, CA, USA) and covered with ApopTag® plastic coverslips (Intergen Company, Purchase, NY, USA). The slides were then examined under fluorescence microscopy (Eclipse E400, Nikon, Inc., Melville, NY, USA) and counted using SPOT Advance® 3.5 software (Diagnostic Instruments, Inc., Sterling Heights, MI, USA).

Another assay has as its system Bcl-2. Put plainly: Western-blot analysis of Bcl-2 in LNCaP cells. The class given is cell-based, human. The conditions noted are these: data not shown. As to the method: The Western-blot protocol described for cytokeratins 8/18 was followed with some exceptions. Cell lysates (50 μg) were separated on a 15% SDS–PAGE gel. All washing was performed using TBS containing 1% Tween 20 (TBS-T). Blocking was performed using 5% milk in TBS-T. Incubations were performed using rabbit monoclonal IgG antibody to Bad and Bcl-2 (1 : 1000), as well as horseradish peroxidase-linked anti-rabbit IgG antibodies (1 : 2000) (Cell Signaling Technology, Beverly, MA, USA).

Assay [3] concerns human breast T47D cancer cells. The arrangement: method as in Van Heusden et al, 2002. Particulars: 1 μM, ref Van Heusden et al, 2002; cited from earlier work.

For the molecule `CC1=C(/C=C/C(C)=C/C=C/C(C)=C/C(=O)Nc2ccc(O)cc2)C(C)(C)CCC1` [Compound 4-HPR, reference compound], the “Sub-G1 (%)” value in the assay on LNCaP cells [1] (apoptotic cells, control 9.02) worked out at 7.52%. The “G2/M (%)” value in the assay on LNCaP cells [1] (control 2.20) worked out at 12.03%. The “S (%)” value in the assay with LNCaP cells [1] (control 15.01) is recorded as 9.18%. In the assay with LNCaP cells [1] (control 82.78), the “G0/G1 (%)” value was 79.53%. Also, the “induction of apoptosis (TUNEL)” value in the assay on LNCaP cells [2] is recorded as “concentration-dependent induction of apoptosis”. The “expression of Bcl-2” value in the assay with Bcl-2 is given as “did not effect”.

In the case of `C[C@@H]([C@H](c1ccc(Nc2nc3ccccc3s2)cc1)n1ccnc1)N(C)C` [Compound R116010], the “enhancement of the antiproliferative activity of ATRA” value in assay [3] is “threefold”.

Values taken from PMC2361176, “Inhibitory effects of retinoic acid metabolism blocking agents (RAMBAs) on the growth of human prostate cancer cells and LNCaP prostate tumour xenografts in SCID mice” (British Journal of Cancer, 2006).
